# Entries after “also recorded” stand apart in the source; their conditions may differ.
# Experiments:
# [1] = tested on: human CD34+ HSPCs; assay: HDR gene editing efficiency in HSPCs (ddPCR, GFP flow cytometry); type: cell-based
# [2] = tested on: CDKN1A (p21); assay: p21 expression in edited HSPCs (qPCR); type: cell-based, human; conditions: CB HSPCs, HS/AAV6 ± Anakinra, 24 and 96 h
# Description: (§1) For gene expression analyses, total RNA was extracted using either miRNeasy Micro Kit (QIAGEN) according to the manufacturer's instructions and DNase treatment was performed using RNase-free DNase Set (QIAGEN). cDNA was synthetized with iScript cDNA Synthesis Kit (Bio-Rad). cDNA was then pre-amplified using TaqMan PreAmp Master Mix (ThermoFisher) and used for q-PCR in a Viia7 Real-time PCR thermal cycler using both Fast SYBR Green Master Mix (Thermofisher), after standard curve method optimization to reach the 100% primer efficiency for each couple of primers listed in 1. The relative expression of each target gene was first normalized to GUSB housekeeping genes expression and then represented as 2^-DCt for each sample or as fold changes (2^-DDCt) relative to the indicated control conditions.
# [3] = tested on: IL1A, IL8, IL6, CCL2; assay: Inflammatory cytokine expression in edited HSPCs (qPCR); type: cell-based, human; conditions: CB HSPCs, HS/AAV6; inhibitor at time of GE vs standard protocol
# [4] = tested on: human CD34+ HSPCs; assay: Colony-forming unit cell (CFU-C) assay; type: cell-based
# [5] = tested on: human CD34+ HSPCs; assay: Culture composition of HSPC subpopulations (flow cytometry); type: cell-based
# [6] = tested on: CB-derived HSPCs; assay: Whole transcriptomic analysis with GSEA; type: cell-based, human; conditions: CB HSPCs edited in presence of Anakinra vs not treated, 24 and 96 h
# Description: Whole transcriptomic analysis was performed on a pool of HSPCs derived from five CB donors. All conditions were performed in triplicate. […] RNA was quantified with The Qubit 2.0 Fluorometer (ThermoFisher) and its quality was assessed by a 2100 Agilent Bioanalyser (Agilent Technologies). Minimum quality was defined as RNA integrity number (RIN) >8,300 ng of total RNA were used for library preparation with TruSeq Stranded Total RNA with Ribo-Zero Gold kit (Illumina) and sequenced on a NextSeq 500 (Illumina). Read quality was determined using FastQC and low-quality sequences were trimmed using Trimmomatic. RNA-seq data were aligned to the human reference genome (GRCh38/hg38) using both HISAT2 and STAR with standard input parameters. Gene counts were produced using Subread featureCounts against Genecode v26 or v31, considering results produced by both the aligners. After visual inspection of results, we continued the analysis using alignments achieved using HISAT, which provided more conservative alignments. […] Differential expression was determined considering only protein coding genes and correcting p-values using FDR.
# [7] = tested on: BM-derived human CD34+ cells; assay: CFU-C assay of CD34+ cells retrieved from bone marrow of primary recipients; type: cell-based; conditions: 15-18 weeks, inhibitor at time of ex vivo GE vs standard protocol
# [8] = tested on: IL8, CXCL10, p21, p16; assay: Gene expression in BM-derived HSPCs (qPCR); type: cell-based, human; conditions: HS/AAV6 ± Anakinra
# Description: as §1
# [9] = tested on: human CD34+ HSPCs; assay: Apoptosis analysis of HSPCs (Annexin V, 7AAD); type: cell-based; conditions: HSPCs edited with COMBO, 24 h upon GE
substance,measurement,setting,value
Anakinra: recombinant and slightly modified form of the Human interleukin-1 receptor antagonist (IL-1Ra); SEQ ID NO: 3,Percentage of HDR-edited alleles (ddPCR),"[1]; CB HSPCs, AAVS1 editing (HS/AAV6), inhibitor at time of GE (Anakinra 50 ng/μl, SC514 25 μM, GSE56 mRNA, ATMi) vs standard protocol",equal percentage of HDR-edited alleles; also recorded: did not affect HSPC ability to repair via HDR
same,Percentage of GFP+ cells within HSPC subpopulations (GE efficiency),"[1]; CB HSPCs, HS/AAV6, inhibitor at time of GE vs standard protocol",maintained the efficiency of GE across all HSPC subpopulations; also recorded: no significant differences in GE efficiency in all HSPC subpopulations
same,HSPC ability to repair via HDR (GFP+ cells),[1]; HSPCs edited with COMBO,without impairing HSPC ability to repair via HDR
same,HDR ability / percentage of GFP+ cells in HSPC subpopulations,"[1]; mPB-derived HSPCs, AAVS1, inhibitor within 15 minutes upon GE",did not affect HSPC ability to repair via HDR
same,Relative expression of CDKN1A (p21),[2],upregulated upon GE compared to negative controls independently from Anakinra treatment
same,"Relative expression of inflammatory cytokine genes (IL1A, IL8, IL6, CCL2)",[3],downregulated 96 h upon Anakinra treatment
same,Number of colonies (HSPC clonogenic potential),"[4]; CB HSPCs, HS/AAV6, inhibitor at time of GE vs standard protocol, 24 h and 96 h post GE",significant increase in HSPC clonogenic potential; also recorded: strongly improved HSPC clonogenic potential in vitro; also recorded: strongly improved HSPC clonogenic potential ex-vivo
same,Clonogenic potential (number of colonies),"[4]; HSPCs edited with COMBO, 24 and 96 h",increase in the clonogenic potential of the cells
same,Clonogenic potential of edited cells,"[4]; mPB-derived HSPCs, 24 and 96 h post GE",significantly improved the clonogenic potential of edited cells
same,Culture composition of HSPC subpopulations,"[5]; CB HSPCs, 24 h and 96 h post gene editing ± Anakinra",No treatment skewed culture composition over time
same,Culture composition skewing,"[5]; HSPCs edited with COMBO, 24 h and 96 h",without overt apoptosis (FIG. 17I) and culture composition skewing
same,HSPC culture composition and differentiation,[5]; mPB-derived HSPCs ± Anakinra,did not alter HSPC culture composition and differentiation
same,"GSEA normalized enrichment scores for inflammatory/TNFα dependent pathways, interferon responses, senescence categories",[6],negative and significantly high normalized enrichment scores (NES); also recorded: downregulated early and late upon Anakinra treatment
same,Number of colonies formed by BM-derived CD34+ cells,[7],higher clonogenic potential
same,"Relative expression of pro-inflammatory cytokines (IL8, CXCL10) in BM-derived edited CD34+ cells",[8],decrease in pro-inflammatory cytokines expression
same,Apoptosis,[9],without overt apoptosis
